Drawing on PubChem BioAssay (NCI), this text covers GI50 and TGI for 9 molecules.

What all share (test): growth of human tumour cells (NCI), 48 h
Assay [1] concerns A498 renal.
In assay [2] the test system is CCRF-CEM leukemia.
In assay [3] the test system is M14 melanoma.
Assay [4] concerns NCI-H226 lung.
The test system of assay [5] is OVCAR-8 ovarian.
Assay [6] concerns SF-539 CNS.
Assay [7] concerns SK-MEL-2 melanoma.
For assay [8], the system named is SK-MEL-5 melanoma.

Structures are written as SMILES.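 Following 48 hours of exposure in 96-well plates, responses at five concentrations were used to interpolate endpoints linearly. GI50 marks 50% less growth. TGI: total growth inhibition.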 Where only a bound is given, the exact number is not on record here.

As for `CC(C)[C@@H]1C=C2CC[C@H]3[C@](C)(CN)CCC[C@]3(C)[C@H]2CC1`, the GI50 is 2.13 µM in assay [1]; 3.39 µM in assay [2]; 1.86 µM in assay [3]; 15.2 µM in assay [4]; 2.28 µM in assay [5]; 3.44 µM in assay [6]. Moreover, the GI50 in assay [7] is 3.88 µM; in assay [8] it was 13.1 µM. The TGI is 15 µM in assay [1]; 13.8 µM in assay [2]; 3.4 µM in assay [3]; 34.4 µM in assay [4]; 5.7 µM in assay [5]; 13 µM in assay [6]. Also, the TGI turned out to be 14.2 µM in assay [7] and 25.8 µM in assay [8].
Regarding `Cc1ccc(-n2c3nc(=O)[nH]c(=O)c-3cc3cc([N+](=O)[O-])ccc32)cc1`, the GI50 in assay [1] was 20.5 µM; in assay [2], 4.67 µM; in assay [3], 17.3 µM; in assay [4], 24.6 µM; in assay [5], 38.6 µM; in assay [6], 13.9 µM. Moreover, the GI50 was 44.2 µM in assay [7] and 16 µM in assay [8]. In addition, the TGI in assay [1] is 45.2 µM; in assay [2], more than 100 µM; in assay [3], 36.6 µM; in assay [4] it was 86 µM; in assay [5], more than 100 µM; in assay [6], 40.8 µM. Besides, the TGI was more than 100 µM in assay [7] and 36.8 µM in assay [8].
Take `O=C(/C(=C/c1ccc([N+](=O)[O-])cc1)SCc1ccccc1)c1ccc(Cl)cc1`: the GI50 in assay [1] is 13.2 µM; in assay [2] it was 2.12 µM; in assay [3] it was 2.63 µM; in assay [4] it was 4.53 µM; in assay [5], 3.98 µM; in assay [6] it was 2.64 µM. The GI50 in assay [7] was 15.3 µM; in assay [8] it was 3.41 µM. Further, the TGI in assay [1] was 28.2 µM; in assay [2] it was more than 100 µM; in assay [3] it was 8.59 µM; in assay [4] it was 34.1 µM; in assay [5], 15.2 µM; in assay [6] it was 8.2 µM. In addition, the TGI in assay [7] turned out to be 32.5 µM; in assay [8], 12.4 µM.
Take `CCN1C(=O)N(c2ccccc2)C2NC(=S)N(/N=C/C=C/c3ccccc3OC)C21` (stereo not drawn): the GI50 in assay [1] was 0.0311 µM; in assay [2], 0.111 µM; in assay [3], 0.0946 µM; in assay [4], 0.3 µM; in assay [5], 0.118 µM; in assay [6], 0.199 µM. Besides, the GI50 in assay [7] was 0.166 µM; in assay [8], 0.099 µM. For the same molecule, the TGI is 0.653 µM in assay [1]; more than 38.5 µM in assay [2]; more than 40 µM in assay [4]; more than 84.3 µM in assay [5]; 0.744 µM in assay [6]; more than 76.2 µM in assay [7]. This molecule yielded a TGI in assay [8] of 0.607 µM.
For `O=C(Nc1ccc(Oc2ccc(Nc3nc4ccccc4s3)cc2)cc1)Nc1ccc(Cl)c(C(F)(F)F)c1`, the GI50 in assay [1] was 1.46 µM; in assay [2], 1.76 µM; in assay [3], 1.46 µM; in assay [4], 1.39 µM; in assay [5], 2.22 µM; in assay [6], 1.64 µM. Further, the GI50 in assay [7] was 2.12 µM; in assay [8], 1.45 µM. Further, the TGI in assay [1] is 3.16 µM; in assay [2] it was more than 100 µM; in assay [3] it was 3.13 µM; in assay [4] it was 3.33 µM; in assay [5], 7.29 µM; in assay [6], 3.75 µM. Further, the TGI in assay [7] was 4.35 µM; in assay [8] it was 2.79 µM.
For `N#CC(C#N)=C/C=C(\Sc1nc2ccccc2s1)c1ccc(Cl)cc1`, the GI50 in assay [1] was 8.26 µM; in assay [2], 0.577 µM; in assay [3], 3.19 µM; in assay [4], 7.73 µM; in assay [5], 7.53 µM; in assay [6], 2.83 µM. The results for the GI50 in assay [7] and in assay [8] were 27.8 µM and 10.4 µM, respectively. Moreover, the TGI in assay [1] was 28.6 µM; in assay [2] it was more than 100 µM; in assay [3], 10.5 µM; in assay [4] it was 22.8 µM; in assay [5], 25 µM; in assay [6], 9.89 µM. Also, the TGI in assay [7] was more than 100 µM; in assay [8], 24.6 µM.
Regarding `COc1cccc(C(=O)NC(c2ccc(C)cc2)c2cc(Cl)c3cccnc3c2O)c1` (stereo not drawn), the GI50 was 1.28 µM in assay [1]; 0.366 µM in assay [2]; 0.677 µM in assay [3]; 0.568 µM in assay [4]; 0.476 µM in assay [5]; 0.445 µM in assay [6]. Besides, the GI50 was 0.767 µM in assay [7] and 0.318 µM in assay [8]. Besides, the TGI in assay [1] was found to be 11.6 µM; in assay [2], 11.7 µM; in assay [3], 10.8 µM; in assay [4], 2.57 µM; in assay [5], 26.7 µM; in assay [6], 3.27 µM. For the same molecule, the TGI in assay [7] worked out at 9.16 µM; in assay [8], 1.32 µM.
As for `Cc1cc(I)cc(CN(CCCN(C)C)C(C)C)c1O`, the GI50 in assay [1] is 21 µM; in assay [2], 0.116 µM; in assay [3], 16.2 µM; in assay [4] it was 25.7 µM; in assay [5], 31.6 µM; in assay [6] it was 15.3 µM. Besides, the GI50 was 18.2 µM in assay [7] and 16.4 µM in assay [8]. For the same molecule, the TGI in assay [1] is 37.8 µM; in assay [2] it was 1.03 µM; in assay [3], 31 µM; in assay [4], more than 100 µM; in assay [5] it was more than 100 µM; in assay [6] it was 29.1 µM. The TGI in assay [7] stood at 35.7 µM; in assay [8], 30.2 µM.
Consider `CC1SC(c2ccc(F)cc2)N(NC(=O)C(O)c2ccccc2)C1=O` (stereo not drawn), for which the GI50 in assay [1], in assay [2], in assay [3], in assay [4], in assay [5] and in assay [6] was more than 100 µM each time. For the same molecule, the GI50 in assay [7] and in assay [8] was more than 100 µM in each case. Moreover, the TGI in assay [1], in assay [2], in assay [3], in assay [4], in assay [5] and in assay [6] was more than 100 µM in each case. Also, the TGI in assay [7] and in assay [8] was more than 100 µM throughout.
